SMILES strings stand for the structures. Values joined by “and” are separate entries in the source; they are usually repeats but may differ in a detail not shown here. Identical values can stand only once. Active and inactive are the calls of the source. No rule for the calls is given here.

Assay [1] deals with NS3h 2a (JFH1). The assay can be described thus: strain-dependent HCV NS3h unwinding inhibition – biochemical, real-time fluorescence, genotypes 2a and 1b, Set 2, selectivity assay for HCV NS3 helicase inhibitor project, late-stage follow-up (AID 504419). Conditions: Recombinant NS3 helicase.
In assay [2] the target is NS3h 1b (con1). The description is as above. As to conditions: Recombinant NS3 helicase.

Take `CCCCOc1ccccc1C(=O)NNC(=S)NC(=O)c1ccccc1[N+](=O)[O-]`: the IC50 in assay [1] and in assay [2] was > 100 µM (inactive) in each case. With `CN(C)c1ccc(O)c2c1C[C@H]1C[C@H]3[C@H](N(C)C)C(=O)C(C(N)=O)=C(O)[C@@]3(O)C(=O)C1=C2O`, the IC50 in assay [1] was > 100 µM (inactive). For the same molecule, the IC50 result in assay [2] is “inactive”.

Consider `CCOc1ccc(C2C(C(=O)c3ccc(C)o3)=C(O)C(=O)N2c2cc(C)on2)cc1` (configuration not stated), for which the IC50 in assay [1] and in assay [2] was > 100 µM (inactive) throughout.

In the case of `Cc1cc(N2C(=O)C(O)=C(C(=O)c3ccc(C)o3)C2c2cc(Cl)cc(Cl)c2)no1` (configuration not stated), the IC50 in assay [1] and in assay [2] was > 100 µM (inactive) each time.

Regarding `CC(=O)c1ccc(-c2cccc(-c3cc(=O)oc4ccc(C(C)(C)C)cc34)c2)cc1`, the IC50 in assay [1] and in assay [2] was > 100 µM (inactive) each time.

With `NS(=O)(=O)c1ccc2nc(NC(=O)c3ccc4ncsc4c3)sc2c1`, the IC50 in assay [1] is > 10.9 µM (inactive). Besides, the IC50 result in assay [2] is “inactive”. The like results for `O=C1OC(c2ccc(F)cc2)=C/C1=C/c1ccc([N+](=O)[O-])o1` were, in that order, > 100 µM (inactive) and > 100 µM (inactive). The corresponding values for `CCCCOc1ccc(C2C(C(=O)c3ccc(C)o3)=C(O)C(=O)N2c2cc(C)on2)cc1` (configuration not stated) are > 100 µM (inactive) and > 100 µM (inactive).

Regarding `Cc1ccc(NC(=O)Nc2ccc(-c3nc4ccc(-c5nc6ccc(C)c(S(=O)(=O)O)c6s5)cc4s3)cc2)cc1`, the IC50 in assay [1] was 3.21 µM; in assay [2], 5.93 µM.

Regarding `Cc1ccc2nc(-c3ccc(NC(=O)c4ccc5ncoc5c4)cc3)sc2c1`, the IC50 entry in assay [1] and in assay [2] was “inactive” each time. In the case of `Cc1ccc2nc(-c3ccc(NC(=O)c4ccc(F)cc4)cc3)sc2c1`, the IC50 in assay [1] and in assay [2] was > 100 µM (inactive) each time.

In the case of `O=C(Nc1nc(-c2ccco2)c(-c2ccco2)s1)C1CCC1`, the figures for the IC50 in assay [1] and in assay [2] were > 100 µM (inactive) and > 16.4 µM (inactive), respectively. As for `COc1cc2oc(=O)cc(-c3ccc(-c4ccc(CO)cc4)cc3)c2c(OC)c1OC`, the IC50 in assay [1] and in assay [2] was > 100 µM (inactive) in each case. On to `COc1cc(Br)cc(C2C(C(=O)c3ccc(C)o3)=C(O)C(=O)N2c2cc(C)on2)c1OC` (configuration not stated), for which the IC50 in assay [1] and in assay [2] was > 100 µM (inactive) each time. With `COc1ccc(C(=O)Nc2ccc(-c3nc4ccc(-c5nc6ccc(C)c(S(=O)(=O)O)c6s5)cc4s3)cc2)cc1`, the concentration for half-maximal inhibition (IC50) in assay [1] is 5.7 µM; in assay [2], 8.41 µM. As for `CCCCCCCCCc1nc2sc3c(c2c(=O)n1NC(=O)c1ccccc1[N+](=O)[O-])CC(C)(C)OC3`, the IC50 in assay [1] and in assay [2] was > 100 µM (inactive) each time. Consider `CCc1cc2c(=O)n(Cc3ccco3)c(SCc3c(C)noc3C)nc2s1`, for which the IC50 in assay [1] and in assay [2] was > 100 µM (inactive) each time.

With `Cc1ccc2nc(-c3ccc4nc(-c5ccc(NC(=O)c6ccc(N(C)C)cc6)cc5)sc4c3)sc2c1S(=O)(=O)O`, the IC50 in assay [1] was 6.15 µM. The IC50 result in assay [2] is “inactive”. The like results for `COc1ccc(S(=O)(=O)Nc2ccc(-c3nc4ccc(-c5nc6ccc(C)c(S(=O)(=O)O)c6s5)cc4s3)cc2)cc1` were, in that order, “inactive” and “inactive”. The like results for `COc1cc(OC)c2ccc(=O)oc2c1[C@H](CCN1CCN(c2ccccc2)CC1)c1ccc(N(C)C)cc1` were, in that order, > 100 µM (inactive) and > 100 µM (inactive). For the molecule `Cc1ccc2nc(-c3ccc4nc(-c5ccc6nc(-c7ccc8nc(-c9ccc(N)cc9)sc8c7)sc6c5)sc4c3)sc2c1S(=O)(=O)O`, the values for the IC50 in assay [1] and in assay [2] were 1.98 µM and 2.13 µM, respectively.

Regarding `Cc1ccc(NC(=O)C2=C(c3ccccc3)S(=O)(=O)CCS2(=O)=O)cc1`, the IC50 in assay [1] and in assay [2] was > 100 µM (inactive) in each case. Take `COc1c(N2CCN(C(=S)NCc3ccccc3)C(C)C2)c(F)cc2c(=O)c(C(=O)O)cn(C3CC3)c12` (configuration not stated): the IC50 in assay [1] and in assay [2] was > 100 µM (inactive) each time. For the molecule `Cc1ccc2nc(-c3ccc4nc(-c5ccc(NC(=O)c6ccc(Cl)cc6)cc5)sc4c3)sc2c1S(=O)(=O)O`, the IC50 in assay [1] is 2.66 µM; in assay [2] it was 4.31 µM. The corresponding values for `C=C1c2cccc(O)c2C(O)=C2C(=O)[C@]3(O)C(O)=C(C(N)=O)C(=O)[C@@H](N(C)C)[C@@H]3[C@@H](O)[C@H]12` are > 100 µM (inactive) and “inactive”.

Turning to `O=c1c(O)cccc2cc(O)c(O)c(O)c12`, the IC50 in assay [1] and in assay [2] was > 100 µM (inactive) throughout. As for `Cc1ccc2nc(-c3ccc4nc(-c5ccc(NC(=O)c6ccc(C(C)(C)C)cc6)cc5)sc4c3)sc2c1S(=O)(=O)O`, the IC50 in assay [1] is 4.96 µM. For the same molecule, the IC50 entry in assay [2] was “inactive”. The corresponding values for `Cc1ccc(C(=O)C2=C(O)C(=O)N(Cc3ccco3)C2c2cc(Cl)cc(Cl)c2)o1` (configuration not stated) are > 100 µM (inactive) and > 100 µM (inactive). The like results for `NS(=O)(=O)c1ccc2nc(NC(=O)c3ccc4ncoc4c3)sc2c1` were, in that order, “inactive” and > 26.5 µM (inactive).

Consider `COc1cc(Br)cc(C2C(C(=O)c3ccc(C)o3)=C(O)C(=O)N2Cc2ccccc2)c1OC` (configuration not stated), for which the IC50 in assay [1] and in assay [2] was > 100 µM (inactive) throughout. With `NC(=S)N/N=C/c1ccc(C23CC4CC(CC(C4)C2)C3)cc1`, the IC50 in assay [1] and in assay [2] was > 100 µM (inactive) each time. Turning to `O=C(NC(=S)Nc1ccc(-c2ccc(CO)o2)cc1)c1cccs1`, the IC50 in assay [1] and in assay [2] was > 100 µM (inactive) throughout. Regarding `Cc1ccc2nc(-c3ccc4nc(-c5ccc(NC(=O)c6ccc7ccccc7c6)cc5)sc4c3)sc2c1S(=O)(=O)O`, the IC50 in assay [1] is 1.71 µM; in assay [2], 2.93 µM.

Turning to `Cc1ccc2nc(-c3ccc(NC(=O)c4ccc(F)cc4)cc3)sc2c1S(=O)(=O)O`, the IC50 in assay [1] and in assay [2] was > 100 µM (inactive) each time.

With `Cc1ccc(/C=C/C(=O)Nc2ccc([N+](=O)[O-])c(NC(=O)/C=C/c3ccc(C)o3)c2)o1`, the IC50 was > 100 µM (inactive) in assay [1] and > 38.1 µM (inactive) in assay [2]. The corresponding values for `CC(C)C(C)(C#N)NC(=O)CSc1nc2scc(-c3ccco3)c2c(=O)n1-c1ccccc1` (configuration not stated) are > 100 µM (inactive) and > 100 µM (inactive). On to `N#C/C(=C\c1ccc(O)c(O)c1)S(=O)(=O)c1ccccc1`, for which the IC50 in assay [1] and in assay [2] was > 100 µM (inactive) in each case.

With `CNc1ccc(Br)cc(C(=O)/C=C/c2cc(OC)ccc2OC)c1=O`, the IC50 in assay [1] and in assay [2] was > 100 µM (inactive) throughout. For the molecule `Cc1ccc2nc(-c3ccc4nc(-c5ccc(NC(=O)c6ccc7nc(-c8ccc(NC(=O)OCC9c%10ccccc%10-c%10ccccc%109)cc8)sc7c6)cc5)sc4c3)sc2c1S(=O)(=O)O`, the IC50 in assay [1] was 2.09 µM and > 28 µM (inactive).

The term IC50 denotes the midpoint of a concentration-inhibition curve.

These data come from PubChem BioAssay AID504419 (The Scripps Research Institute Molecular Screening Center, 2011).
